Measured values reported in patent publication US12109195B2, “Compositions and methods for treatment of vaginal infections” (priority 2020, dated 2024).
Counter-ions that a name gives are not always drawn.

Assays:
G. vaginalis = assay: Minimum inhibitory concentration (MIC) against G. vaginalis, two-fold dilutions in 96-well plates; type: cell-based; conditions: Gardnerella vaginalis; after 48 hours; tested 0.0625 to 16 mg/mL; FIG. 1A; read-out: concentration showing significant inhibition of growth of G. vaginalis (MIC)
Method: Formulations of creatinine hydrochloride were prepared in different concentrations to evaluate the effect on the inhibition of growth of G. vaginalis. Creatinine hydrochloride was used in varying concentrations ranging from 0.0625 mg/mL to 16 mg/mL. The minimum inhibitory concentration (MIC) for each solution was determined against G. vaginalis using two-fold dilutions and flat-bottom 96-well plates.

M. mulieris = assay: Minimum inhibitory concentration (MIC) against M. mulieris, two-fold dilutions in 96-well plates; type: cell-based, Mobiluncus mulieris; conditions: FIG. 2A
Method: The minimum inhibitory concentration (MIC) for each solution was determined against M. mulieris using two-fold dilutions and flat-bottom 96-well plates. […] Methods for Antimicrobial Susceptibility Testing of Anaerobic Bacteria; Approved Standard—6th Edition).

MIC (G. vaginalis): 4000 µg/mL
MIC (M. mulieris; Mobiluncus mulieris, after 48 hours, tested 0.0625 to 16 mg/mL, read-out: concentration that inhibited growth of M. mulieris (MIC)): 4000 µg/mL
SMILES: CN1CC(=O)NC1=N [creatinine hydrochloride]
concentration that still inhibited growth of M. mulieris (M. mulieris; after 72 hours): 8 mg/mL
